system: Hepatitis C replicon; assay: HCV replicon assay (NPT ELISA readout) in Huh-7 replicon-containing cells; format: cell-based, Hepatitis C virus; conditions: Hepatitis C virus, 72 h; HCV replicon in Huh-7 cells, three days incubation
Summary of the method: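 Huh-7 cells carrying a neo-containing HCV subgenomic replicon (NS3-NS5B) were plated overnight, then exposed to compound (generally 6 concentrations, 10 to 0.03 μM) for three days at 37 °C. Replication was read as NPT level by captured ELISA; interferon alpha served as positive control.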

`CO/N=C1\CN(C(=O)C[C@H]2CCCCC/C=C\[C@@H]3C[C@@]3(C(=O)NS(=O)(=O)C3CC3)NC(=O)[C@@H]3C[C@@H](Oc4cc(-c5ccccc5)nc5cc(OC)ccc45)CN3C2=O)CC1(C)CN` (stereo partly drawn) [Compound 110, (2R,6R,14aR,16aS,Z)-6-(2-((Z)-3-(aminomethyl)-4-(methoxyimino)-3-methylpyrrolidin-1-yl)-2-oxoethyl)-N-(cyclopropylsulfonyl)-2-(7-methoxy-2-phenylquinolin-4-yloxy)-5,16-dioxo-1,2,3,5,6,7,8,9,10,11, 13a,14,14a,15,16,16a-hexadecahydrocyclopropa [e]pyrrolo[1,2-a][1,4] diazacyclopentadecine-14a-carboxamide] and `COc1ccc2c(O[C@@H]3C[C@H]4C(=O)N[C@]5(C(=O)NS(=O)(=O)C6CC6)C[C@H]5/C=C\CCCCC[C@H](CC(=O)N5CC[C@H](C(C)(C)N)C5)C(=O)N4C3)cc(-c3ccccc3)nc2c1` [Compound 111, (2R,6R,14aR,16aS,Z)-6-(2-((S)-3-(2-aminopropan-2-yl)pyrrolidin-1-yl)-2-oxoethyl)-N-(cyclopropylsulfonyl)-2-(7-methoxy-2-phenylquinolin-4-yloxy)-5,16-dioxo-1,2,3,5,6,7,8,9,10,11, 13a,14,14a,15,16,16a-hexadecahydrocyclopropa [e]pyrrolo[1,2-a][1,4] diazacyclopentadecine-14a-carboxamide] cannot be ordered by EC50: under 1000 nM for the first, under 1000 nM for the second.

`O=C1N[C@]2(C(=O)NS(=O)(=O)C3CC3)C[C@H]2/C=C\CCCCC[C@H](CC(=O)N2CCCCC2)C(=O)N2C[C@H](OC(=O)N3CCc4ccccc4C3)C[C@@H]12` [Compound 112, (2R,6R,14aR, 16aS,Z)-14a-(cyclopropylsulfonyl-carbamoyl)-5,16-dioxo-6-(2-oxo-2-(piperidin-1-yl)ethyl)-1,2,3,5,6,7,8,9,10,11, 13a,14,14a,15,16,16a-hexadecahydrocyclopropa [e]pyrrolo[1,2-a][1,4] diazacyclopentadecin-2-yl 3,4-dihydroisoquinoline-2(1H)-carboxylate] and `O=C1N[C@]2(C(=O)NS(=O)(=O)C3CC3)C[C@H]2/C=C\CCCCC[C@H](CC(=O)N2CCCC(F)(F)C2)C(=O)N2C[C@H](OC(=O)N3CCc4ccccc4C3)C[C@@H]12` [Compound 113, (2R,6R,14aR, 16aS,Z)-14a-(cyclopropylsulfonyl-carbamoyl)-6-(2-(3,3-difluoropiperidin-1-yl)-2-oxoethyl)-5,16-dioxo-1,2,3,5,6,7,8,9,10,11, 13a,14,14a,15,16,16a-hexadecahydrocyclopropa [e]pyrrolo[1,2-a][1,4] diazacyclopentadecin-2-yl 3,4-dihydroisoquinoline-2(1H)-carboxylate] cannot be ordered by EC50: under 1000 nM for the first, under 1000 nM for the second.

`O=C1N[C@]2(C(=O)NS(=O)(=O)C3CC3)C[C@H]2/C=C\CCCCC[C@H](CC(=O)N2CCC(F)(F)C2)C(=O)N2C[C@H](OC(=O)N3CCc4ccccc4C3)C[C@@H]12` [Compound 114, (2R,6R,14aR, 16aS,Z)-14a-(cyclopropylsulfonyl-carbamoyl)-6-(2-(3,3-difluoropyrrolidin-1-yl)-2-oxoethyl)-5,16-dioxo-1,2,3,5,6,7,8,9,10,11, 13a,14,14a,15,16,16a-hexadecahydrocyclopropa [e]pyrrolo[1,2-a][1,4] diazacyclopentadecin-2-yl 3,4-dihydroisoquinoline-2(1H)-carboxylate] and `O=C1N[C@]2(C(=O)NS(=O)(=O)C3CC3)CC2/C=C\CCCCC[C@H](CC(=O)N2CCC(C(F)(F)F)CC2)C(=O)N2C[C@H](OC(=O)N3CCc4ccccc4C3)C[C@@H]12` (stereo partly drawn) [Compound 115, (2R,6R,14aR, 16aS,Z)-14a-(cyclopropylsulfonyl-carbamoyl)-5,16-dioxo-6-(2-oxo-2-(4-(trifluoromethyl)piperidin-1-yl)ethyl)-1,2,3,5,6,7,8,9,10,11, 13a,14,14a,15,16,16a-hexadecahydrocyclopropa [e]pyrrolo[1,2-a][1,4] diazacyclopentadecin-2-yl 3,4-dihydroisoquinoline-2(1H)-carboxylate] cannot be ordered by EC50: under 1000 nM for the first, under 1000 nM for the second.

First: COc1ccc2c(O[C@@H]3C[C@H]4C(=O)N[C@]5(C(=O)NS(=O)(=O)C6CC6)C[C@H]5/C=C\CCCCC[C@H](CC(=O)N5CCCCC5)C(=O)N4C3)cc(-c3ccccn3)nc2c1C [Compound 116, (2R,6R,14aR,16aS,Z)-N-(cyclopropylsulfonyl)-2-(7-methoxy-8-methyl-2-(pyridin-2-yl)quinolin-4-yloxy)-5, 16-dioxo-6-(2-oxo-2-(piperidin-1-yl)ethyl)-1,2,3,5,6,7,8,9,10,11, 13a,14,14a,15,16,16a-hexadecahydrocyclopropa [e]pyrrolo[1,2-a][1,4] diazacyclopentadecine-14a-carboxamide]
Second: COc1ccc2c(O[C@@H]3C[C@H]4C(=O)N[C@]5(C(=O)NS(=O)(=O)C6CC6)C[C@H]5/C=C\CCCCC[C@H](CC(=O)N5CCC(C(F)(F)F)CC5)C(=O)N4C3)cc(-c3ccccn3)nc2c1C [Compound 117, (2R,6R,14aR,16aS,Z)-N-(cyclopropylsulfonyl)-2-(7-methoxy-8-methyl-2-(pyridin-2-yl)quinolin-4-yloxy)-5, 16-dioxo-6-(2-oxo-2-(4-(trifluoromethyl)piperidin-1-yl)ethyl)-1,2,3,5,6,7,8,9,10,11, 13a,14,14a,15,16,16a-hexadecahydrocyclopropa [e]pyrrolo[1,2-a][1,4] diazacyclopentadecine-14a-carboxamide]
The EC50 of the first is lower: under 1000 nM for the first, over 10000 nM for the second. The first is the more potent here.

`COc1ccc2c(O[C@@H]3C[C@H]4C(=O)N[C@]5(C(=O)NS(=O)(=O)C6CC6)C[C@H]5/C=C\CCCCC[C@H](CC(=O)N5CCCCC5)C(=O)N4C3)cc(-c3nc(C(C)C)cs3)nc2c1` [Compound 118, (2R,6R,14aR,16aS,Z)-N-(cyclopropylsulfonyl)-2-(2-(4-isopropylthiazol-2-yl)-7-methoxyquinolin-4-yloxy)-5,16-dioxo-6-(2-oxo-2-(piperidin-1-yl)ethyl)-1,2,3,5,6,7,8,9,10,11, 13a,14,14a,15,16,16a-hexadecahydrocyclopropa [e]pyrrolo[1,2-a][1,4] diazacyclopentadecine-14a-carboxamide] and `COc1ccc2c(O[C@@H]3C[C@H]4C(=O)N[C@]5(C(=O)NS(=O)(=O)C6CC6)C[C@H]5/C=C\CCCCC[C@H](CC(=O)N5CCC(C(F)(F)F)CC5)C(=O)N4C3)cc(-c3nc(C(C)C)cs3)nc2c1` [Compound 119, (2R,6R,14aR,16aS,Z)-N-(cyclopropylsulfonyl)-2-(2-(4-isopropylthiazol-2-yl)-7-methoxyquinolin-4-yloxy)-5,16-dioxo-6-(2-oxo-2-(4-(trifluoromethyl)piperidin-1-yl)ethyl)-1,2,3,5,6,7,8,9,10,11, 13a,14,14a,15,16,16a-hexadecahydrocyclopropa [e]pyrrolo[1,2-a][1,4] diazacyclopentadecine-14a-carboxamide] cannot be ordered by EC50: under 1000 nM for the first, under 1000 nM for the second.

`COc1ccc2c(O[C@@H]3C[C@H]4C(=O)N[C@]5(C(=O)NS(=O)(=O)C6CC6)C[C@H]5/C=C\CCCCC[C@H](CC(=O)N5CCCCC5)C(=O)N4C3)cc(-c3ccccc3)cc2c1` [Compound 120, (2R,6R,14aR,16aS,Z)-N-(cyclopropylsulfonyl)-2-(6-methoxy-3-phenylnaphthalen-1-yloxy)-5,16-dioxo-6-(2-oxo-2-(piperidin-1-yl)ethyl)-1,2,3,5,6,7,8,9,10,11, 13a,14,14a,15,16,16a-hexadecahydrocyclopropa [e]pyrrolo[1,2-a][1,4] diazacyclopentadecine-14a-carboxamide] and `COc1ccc2c(O[C@@H]3C[C@H]4C(=O)N[C@]5(C(=O)NS(=O)(=O)C6CC6)C[C@H]5/C=C\CCCCC[C@H](CC(=O)N5CCCCC5)C(=O)N4C3)nccc2c1Cl` [Compound 122, (2R,6R,13aS,16aS, Z)-2-(5-chloro-6-methoxylsoquinolin-1-yloxy)-N-(cyclopropylsulfonyl)-5, 16-dioxo-6-(2-oxo-2-(piperidin-1-yl)ethyl)-1,2,3,5,6,7,8,9,10,11, 13a,14,14a,15,16,16a-hexadecahydrocyclopropa [e]pyrrolo[1,2-a][1,4] diazacyclopentadecine-14a-carboxamide] cannot be ordered by EC50: under 1000 nM for the first, under 1000 nM for the second.

`COc1ccc2c(O[C@@H]3C[C@H]4C(=O)N[C@]5(C(=O)NS(=O)(=O)C6CC6)C[C@H]5/C=C\CCCCC[C@H](CC(=O)N5CCC(C(F)(F)F)CC5)C(=O)N4C3)cc(-c3csc(NC(C)C)n3)nc2c1C` [Compound 121, (2R,6R,13aS,16aS,Z)-N-(cyclopropylsulfonyl)-2-(2-(2-(isopropylamino)thiazol-4-yl)-7-methoxy-8-methylquinolin-4-yloxy)-5,16-dioxo-6-(2-oxo-2-(4-(trifluoromethyl)piperidin-1-yl)ethyl)-1,2,3,5,6,7,8,9,10,11, 13a,14,14a,15,16,16a-hexadecahydrocyclopropa [e]pyrrolo[1,2-a][1,4] diazacyclopentadecine-14a-carboxamide] and `COc1ccc2c(O[C@@H]3C[C@H]4C(=O)N[C@]5(C(=O)NS(=O)(=O)C6CC6)C[C@H]5/C=C\CCCCC[C@H](CC(=O)N5CCC(C(F)(F)F)CC5)C(=O)N4C3)nccc2c1Cl` [Compound 124] cannot be ordered by EC50: under 1000 nM for the first, under 1000 nM for the second.

`COc1ccc2c(O[C@@H]3C[C@H]4C(=O)N[C@]5(C(=O)NS(=O)(=O)C6CC6)C[C@H]5/C=C\CCCCC[C@H](CC(=O)N5CCCC(F)(F)C5)C(=O)N4C3)nccc2c1Cl` [Compound 123, (2R,6R,13aS,16aS, Z)-2-(5-chloro-6-methoxylsoquinolin-1-yloxy)-N-(cyclopropylsulfonyl)-6-(2-(3,3-difluoropiperidin-1-yl)-2-oxoethyl)-5,16-dioxo-1,2,3,5,6,7,8,9,10,11, 13a,14,14a,15,16,16a-hexadecahydrocyclopropa [e]pyrrolo[1,2-a][1,4] diazacyclopentadecine-14a-carboxamide] was tested, and the EC50 was over 10000 nM.

— patent US8697641B2, “4-amino-4-oxobutanoyl peptide cyclic analogues, inhibitors of viral replication” (Achillion Pharmaceuticals, Inc., priority 2008, dated 2014)
